Measured values as given in patent US5356794A, “Purified enzymatic preparation derived from chromobacterium violaceum, method for preparing it and its use in the production of α, β-dehydrotryptophanyl-peptides” (priority 1991, dated 1994).

Key:
Format in all cases: biochemical, Chromobacterium violaceum
L-Trp 2',3'-oxidase [1] = assay: Specificity of the reaction (conversion of amino acid derivatives and indole compounds); conditions: for effect of conversion of substrates with free α-amino group on the enzyme: after a few minutes, absorbance at 320 nm rises then decreases
From the text: No conversion could be observed for the aromatic amino acids: N-acetyl-L-phenylalaninamide and N-acetyl-L-tyrosinamide. The same is the case when the indole ring is substituted: 5-hydroxyl L-Trp, N-formyl L-Trp and for the isomers of the D series: D-tryptophan and N-acetyl-D-tryptophan.
This phenomenon is much more rapid when the α-carboxyl functional group is not substituted (L-Trp, comp. I), and results in the formation of an unstable imine (II) which is hydrolysed to give rise to the α-keto compounds (indole-3-pyruvic acid (III) and its amide homologue respectively)--FIG. 6--. It is therefore preferable to block the α-amino functional group so as to avoid any isomerisation phenomenon and to ensure greater stability of the dehydro compound.

L-Trp 2',3'-oxidase [2] = assay: Kinetics of dehydrogenation of substrates by purified L-Trp 2',3'-oxidase (appearance of dehydro product at 330 nm); conditions: substrate of L-Trp 2',3'-oxidase, in the presence of catalase
Description: Measurements of the specific activity of the enzyme as well as all the kinetic experiments in the steady state, were performed under the standard conditions defined below:
Substrate: 1 mMN-acetyl-L-tryptophanamide (NATA)
Buffer: 50 mM succinate, pH 5.5
by directly monitoring the appearance of the dehydro product at 330 nm (FIG. 3). The specific activity (As) of fraction Q1 is calculated on the basis of a molar extinction coefficient at 330 nm of 18.8 mM^-1.cm^-1 determined in the laboratory (against ε330 =19.89 mM^-1.cm^-1 in the literature; TAKAI et al. mentioned above). NATA, which represents the smallest peptide chain possible, is used as reference substrate for the enzymatic reaction. The specific activity of the preparation (As) is estimated at 39.5±3.1 units for NATA (an enzymatic unit represents a mole of product formed per second per mole of heme).
The dehydrogenation of NATA was monitored as a function of the pH (pH 3-5, 6-8) at a temperature of 30° C. in 50 mM succinate buffer, pH 5.6. The reaction products are analysed and purified by reversed-phase HPLC and then freeze-dried and analysed by mass spectrometry (desorption by chemical ionisation: DCI). ΔNATA is the only product of the enzymatic reaction which is characterised by HPLC (single peak, γmax 333 nm) and by mass spectrophotometry (MH^+ =244).
The procedure is as in Example 1.7).
All the reactions were performed in the presence of catalase. In each case, the kinetic constants (Kcat and Km) are calculated so as to evaluate the efficiency of the enzyme for each type of substrate.

L-Trp 2',3'-oxidase [3] = assay: Conversion of Trp in proteins by L-Trp 2',3'-oxidase in 24 hours; conditions: standard conditions, E/S ≈ 1/1000, values given as a guide
Description: (*): Values given as a guide, giving an idea of the conversion of Trp in
the proteins in 24 hours, under the standard conditions defined in Exampl
As specified above, the accessibility of the tryptophanyl residues, both with respect to the indolyl ring and with respect to the Cα and Cβ protons, plays a major role.

## N[C@@H](Cc1c[nH]c2ccc(O)cc12)C(=O)O [5-hydroxyl L-Trp]
L-Trp 2',3'-oxidase [1]
  conversion by the enzyme (specificity of the reaction): No conversion

## N[C@H](Cc1c[nH]c2ccccc12)C(=O)O [D-tryptophan]
L-Trp 2',3'-oxidase [1]
  conversion by the enzyme (specificity of the reaction): No conversion

## N[C@@H](Cc1c[nH]c2ccccc12)C(=O)O [L-tryptophan]
L-Trp 2',3'-oxidase [1]
  effect of conversion of substrates with free α-amino group on the enzyme: complete inhibition of the enzyme

## NC(=O)[C@@H](N)Cc1c[nH]c2ccccc12 [L-tryptophanamide]
L-Trp 2',3'-oxidase [1]
  effect of conversion of substrates with free α-amino group on the enzyme: complete inhibition of the enzyme

## CC(=O)N[C@H](Cc1c[nH]c2ccccc12)C(=O)O [N-acetyl-D-tryptophan]
L-Trp 2',3'-oxidase [1]
  conversion by the enzyme (specificity of the reaction): No conversion

## O=CN[C@@H](Cc1c[nH]c2ccccc12)C(=O)O [N-formyl L-Trp]
L-Trp 2',3'-oxidase [1]
  conversion by the enzyme (specificity of the reaction): No conversion

## CSCC[C@H](NC(=O)[C@H](Cc1c[nH]c2ccccc12)NC(=O)CCNC(=O)OC(C)(C)C)C(=O)N[C@@H](CC(=O)O)C(=O)N[C@@H](Cc1ccccc1)C(N)=O [Pentagastrin]
L-Trp 2',3'-oxidase [2]
  Kcat/Km: 10^6 M^-1.s^-1
L-Trp 2',3'-oxidase [2]; 30° C., 50 mM succinate buffer
  Kcat: 32 s⁻¹
  Km: 26 µM

## O=C(O)CCc1c[nH]c2ccccc12 [indole-3-propionic acid]
L-Trp 2',3'-oxidase [1]
  conversion by the enzyme (specificity of the reaction): oxidised to indole-3-acrylic acid

## NCCc1c[nH]c2ccccc12 [tryptamine]
L-Trp 2',3'-oxidase [1]
  conversion by the enzyme (specificity of the reaction): no reaction

## β-Lactoglobulin: protein substrate, 162 residues, Trp19-Trp51, 32 kDa
L-Trp 2',3'-oxidase [3]
  conversion of Trp in the proteins: 2 % of conversion

B1: Catalase: protein substrate, 506 residues, six Trp, 232 kDa (EC 1.11.1.6) (protein, UniProt P00432 2-527, looked up)
Catalase: ADNRDPASDQMKHWKEQRAAQKPDVLTTGGGNPVGDKLNSLTVGPRGPLLVQDVVFTDEMAHFDRERIPERVVHAKGAGAFGYFEVTHDITRYSKAKVFEHIGKRTPIAVRFSTVAGESGSADTVRDPRGFAVKFYTEDGNWDLVGNNTPIFFIRDALLFPSFIHSQKRNPQTHLKDPDMVWDFWSLRPESLHQVSFLFSDRGIPDGHRHMNGYGSHTFKLVNANGEAVYCKFHYKTDQGIKNLSVEDAARLAHEDPDYGLRDLFNAIATGNYPSWTLYIQVMTFSEAEIFPFNPFDLTKVWPHGDYPLIPVGKLVLNRNPVNYFAEVEQLAFDPSNMPPGIEPSPDKMLQGRLFAYPDTHRHRLGPNYLQIPVNCPYRARVANYQRDGPMCMMDNQGGAPNYYPNSFSAPEHQPSALEHRTHFSGDVQRFNSANDDNVTQVRTFYLKVLNEEQRKRLCENIAGHLKDAQLFIQKKAVKNFSDVHPEYGSRIQALLDKYNEEKPKNAVHTYVQHGSHLSAREKANL
L-Trp 2',3'-oxidase [3]
  conversion of Trp in the proteins: 12 % of conversion
